Measurements as given in PubChem BioAssay (NCI).
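1) Cells in 96-well plates. 2) Compound, 48 h, 5 concentrations. 3) Linear interpolation between surrounding doses. 4) Unreached endpoint = highest concentration. Here, GI50 denotes the concentration required for 50% inhibition of growth. TGI denotes the concentration required for complete inhibition of growth.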

Assays:
Experiment in all cases: NCI-60 cell line screen, 48 h
RXF 393 renal = tested on: RXF 393 renal
NCI-H23 lung = tested on: NCI-H23 lung
M14 melanoma = tested on: M14 melanoma
SK-OV-3 ovarian = tested on: SK-OV-3 ovarian
BT-549 breast = tested on: BT-549 breast
MDA-MB-435 = tested on: MDA-MB-435
COLO 205 colon = tested on: COLO 205 colon
U251 CNS = tested on: U251 CNS
UACC-62 melanoma = tested on: UACC-62 melanoma
HCT-15 colon = tested on: HCT-15 colon
NCI-H226 lung = tested on: NCI-H226 lung
SR leukemia = tested on: SR leukemia
K-562 leukemia = tested on: K-562 leukemia
HOP-92 NSCLC = tested on: HOP-92 NSCLC
KM12 colon = tested on: KM12 colon
CCRF-CEM leukemia = tested on: CCRF-CEM leukemia
OVCAR-3 ovarian = tested on: OVCAR-3 ovarian
SK-MEL-28 melanoma = tested on: SK-MEL-28 melanoma
RPMI-8226 leukemia = tested on: RPMI-8226 leukemia
HT29 colon = tested on: HT29 colon
T-47D breast = tested on: T-47D breast
SK-MEL-2 melanoma = tested on: SK-MEL-2 melanoma
IGROV1 ovarian = tested on: IGROV1 ovarian
MDA-MB-231 breast = tested on: MDA-MB-231 breast
SF-539 CNS = tested on: SF-539 CNS
HOP-62 NSCLC = tested on: HOP-62 NSCLC
MCF7 breast = tested on: MCF7 breast
SF-268 CNS = tested on: SF-268 CNS

With `CCc1cccc2c3c(sc12)C(c1ccc(Cl)cc1)C(C#N)=C(/N=C/c1ccc(Cl)cc1)O3` (stereo unspecified) the GI50 (RXF 393 renal) was 0.578 µM, the TGI (RXF 393 renal) was 2.66 µM and the GI50 (NCI-H23 lung) was 2.51 µM. For the same molecule, the TGI (NCI-H23 lung) was > 50 µM, the GI50 (M14 melanoma) was 0.582 µM and the TGI (M14 melanoma) was > 50 µM. For the same molecule, the GI50 (SK-OV-3 ovarian) was 2.79 µM, the TGI (SK-OV-3 ovarian) was > 50 µM and the GI50 (BT-549 breast) was 2.36 µM. For the same molecule, the TGI (BT-549 breast) was > 50 µM, the GI50 (MDA-MB-435) was 0.162 µM and the TGI (MDA-MB-435) was 0.788 µM. For the same molecule, the GI50 (COLO 205 colon) was 1.59 µM, the TGI (COLO 205 colon) was > 50 µM and the GI50 (U251 CNS) was 1.66 µM. For the same molecule, the TGI (U251 CNS) was 17 µM, the GI50 (UACC-62 melanoma) was 0.306 µM and the TGI (UACC-62 melanoma) was 44.5 µM. The GI50 (HCT-15 colon) was 0.317 µM, the TGI (HCT-15 colon) was > 50 µM and the GI50 (NCI-H226 lung) was 6.31 µM. For the same molecule, the TGI (NCI-H226 lung) was > 50 µM, the GI50 (SR leukemia) was 0.29 µM and the TGI (SR leukemia) was 36.3 µM. For the same molecule, the GI50 (K-562 leukemia) was 0.234 µM, the TGI (K-562 leukemia) was > 50 µM and the GI50 (HOP-92 NSCLC) was 7.66 µM. For the same molecule, the TGI (HOP-92 NSCLC) was 45.5 µM, the GI50 (KM12 colon) was 0.417 µM and the TGI (KM12 colon) was > 50 µM. The GI50 (CCRF-CEM leukemia) was 0.892 µM, the TGI (CCRF-CEM leukemia) was > 50 µM and the GI50 (OVCAR-3 ovarian) was 0.433 µM. For the same molecule, the TGI (OVCAR-3 ovarian) was 25.2 µM, the GI50 (SK-MEL-28 melanoma) was 9.5 µM and the TGI (SK-MEL-28 melanoma) was > 50 µM. For the same molecule, the GI50 (RPMI-8226 leukemia) was 1.06 µM, the TGI (RPMI-8226 leukemia) was > 50 µM and the GI50 (HT29 colon) was 1.2 µM. For the same molecule, the TGI (HT29 colon) was > 50 µM, the GI50 (T-47D breast) was 1.13 µM and the TGI (T-47D breast) was > 50 µM. For the same molecule, the GI50 (SK-MEL-2 melanoma) was 0.797 µM, the TGI (SK-MEL-2 melanoma) was 23.6 µM and the GI50 (IGROV1 ovarian) was 0.377 µM. For the same molecule, the TGI (IGROV1 ovarian) was > 50 µM, the GI50 (MDA-MB-231 breast) was 2.4 µM and the TGI (MDA-MB-231 breast) was > 50 µM. For the same molecule, the GI50 (SF-539 CNS) was 0.755 µM, the TGI (SF-539 CNS) was 2.09 µM and the GI50 (HOP-62 NSCLC) was 2.08 µM. For the same molecule, the TGI (HOP-62 NSCLC) was 22.3 µM, the GI50 (MCF7 breast) was 0.248 µM and the TGI (MCF7 breast) was > 50 µM. The GI50 (SF-268 CNS) was 10.9 µM and the TGI (SF-268 CNS) was > 50 µM.
